Molecules are shown by their SMILES. Like-named read-outs stand apart in the source and are kept apart here.

The target of one test is human DGKα (Homo sapiens, UniProt P23743). As to the kind of experiment: DGKα Biochemical Activity Assay (ADP-Glo).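 Also: luminescent detection of ADP produced as DGKα phosphorylates DAG to phosphatidic acid, IC50 from four-parameter nonlinear curve fit.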 The conditions noted are these: recombinant DGKα 1 nM, 100 μM ATP, 18:1 DAG/POPS/octylglucoside micelles, 1 hour at 25° C.; geometric mean; read-out: HTBS DGKa 1X ATP KM IC50. Background: In ADP-Glo the light output rises with the ADP produced.
Test [1] has as its system Jurkat NFκB-luciferase cells. As to the kind of experiment: Jurkat NFκB-Luciferase Assay. It is filed as cell-based. The conditions noted are these: Homo sapiens. The method, boiled down: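 Luminescence from One-Glo Ex, read 7 min post-addition, reports NFκB activation in Jurkat luciferase reporter cells. Cells, diluted to 1 million cells/ml in 10% FBS RPMI, were dispensed onto plates holding compound and washed, pre-bound antibody.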

The mark [2] stands for this setting: Jurkat NFκB-luciferase cells activated with anti-CD3 antibody (OKT3), 2.5 hrs at 37° C., geometric mean, read-out: DGK NFKb Luciferase EC50.
Where [3] appears, read: Jurkat, […], read-out: DGK NFKb Luciferase EC50 (nM).

Sequence of human DGKα (P23743 whole entry): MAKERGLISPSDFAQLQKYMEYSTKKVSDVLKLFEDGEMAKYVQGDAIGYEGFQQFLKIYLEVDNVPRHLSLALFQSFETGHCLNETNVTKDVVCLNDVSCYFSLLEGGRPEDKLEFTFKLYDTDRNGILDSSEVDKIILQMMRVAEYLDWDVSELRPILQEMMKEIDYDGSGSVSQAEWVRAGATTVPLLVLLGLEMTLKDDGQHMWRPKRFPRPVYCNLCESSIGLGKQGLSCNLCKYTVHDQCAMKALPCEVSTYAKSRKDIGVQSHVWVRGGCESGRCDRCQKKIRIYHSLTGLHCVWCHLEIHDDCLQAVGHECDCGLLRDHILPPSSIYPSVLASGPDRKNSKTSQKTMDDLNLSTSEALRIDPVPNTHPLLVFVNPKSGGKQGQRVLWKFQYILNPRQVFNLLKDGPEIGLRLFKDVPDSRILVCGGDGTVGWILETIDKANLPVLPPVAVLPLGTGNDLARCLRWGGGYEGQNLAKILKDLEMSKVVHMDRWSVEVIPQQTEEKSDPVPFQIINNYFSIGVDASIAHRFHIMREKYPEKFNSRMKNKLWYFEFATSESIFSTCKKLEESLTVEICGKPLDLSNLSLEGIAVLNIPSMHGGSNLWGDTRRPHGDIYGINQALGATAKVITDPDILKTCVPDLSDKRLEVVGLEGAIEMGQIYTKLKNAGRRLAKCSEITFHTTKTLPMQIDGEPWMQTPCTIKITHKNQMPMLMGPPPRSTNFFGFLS
Text for human DGKα: Alternatively, the enzymatic activity of human DGKα was monitored in a biochemical assay in the presence or absence of compounds and using micelles containing 18:1 Diacylglycerol (DAG), 16:0-18:1 PS (POPS) and Octylglucoside as substrate. DGKα activity led to conversion of DAG and ATP to Phosphatidic Acid (PA) and ADP. Levels of ADP were monitored by bioluminescence using the ADP-Glo Kinase Assay (Promega) and were indicative of DGKα activity.
Recombinant DGKα (Carna Biosciences) in assay buffer (5 μL in 50 mM MOPS [3-(N-morpholino) propanesulfonic acid], pH 7.2; 0.0025% Triton X-100; 1 mM dithiothreitol; 5 mM MgCl2, 200 μM ATP) was added to the compound-containing plate and was incubated for 15 minutes at 25° C. […] The reaction mixture was incubated at 25° C. for 1 hour. ADP-Glo Reagent (10 μL, 10 mM Mg added) provided by the kit was added to each well and incubated at 25° C. for 40 minutes. Then, 20 μL of Kinase Detection Reagent was added and incubated at 25° C. for 40 minutes. Luciferase activity of each well was measured via luminescence on an Envision plate reader (PerkinElmer).
Least squares curve fittings were performed using a four-parameter variable slope nonlinear regression model. […] IC50 values from multiple experiments were averaged by geometric mean and the standard deviation was calculated.

Usually IC50 stands for the concentration that gives 50% inhibition. As usually defined, the EC50 is the midpoint of the concentration-response curve. `Cc1nnc2nc(N3CCCc4c(C#CC5(O)CCCC5)cccc43)c3c(F)cccc3n12` [Example 205, 1-((1-(6-fluoro-1-methyl-[1,2,4]triazolo[4,3-a]quinazolin-5-yl)-1,2,3,4-tetrahydroquinolin-5-yl)ethynyl)cyclopentan-1-ol]: the IC50 at human DGKα was found to be 13.9 nM. The EC50 in test [1] (setting [2]) is 16.6 nM.
Consider `Cc1nnc2nc(N3CCCc4c(C#CC5(O)CCCCC5)cccc43)c3c(F)cccc3n12` [Example 206, 1-((1-(6-fluoro-1-methyl-[1,2,4]triazolo[4,3-a]quinazolin-5-yl)-1,2,3,4-tetrahydroquinolin-5-yl)ethynyl)cyclohexan-1-ol], for which the IC50 at human DGKα worked out at 13.5 nM. Moreover, the concentration giving a half-maximal response (EC50) in test [1] (setting [3]) is 5.07 nM.
Turning to `Cc1nnc2nc(N3CCOCc4c(C#CC(C)(C)C(F)(F)F)cccc43)c3c(F)c(F)ccc3n12` [Example 207, 1-(6,7-Difluoro-1-methyl-[1,2,4]triazolo[4,3-a]quinazolin-5-yl)-6-(4,4,4-trifluoro-3,3-dimethyl-but-1-ynyl)-3,5-dihydro-2H-4,1-benzoxazepine], the IC50 on human DGKα amounted to 14.9 nM. For the same compound, the 50% effective concentration (EC50) in test [1] (setting [2]) is 4.04 nM.
For `CC(F)(F)C1(C#Cc2cccc3c2CCCCN3c2nc3nncn3c3ccc(F)c(F)c23)CC1` [Example 208, 5-(6-((1-(1,1-Difluoroethyl)cyclopropyl)ethynyl)-2,3,4,5-tetrahydro-1H-benzo[b]azepin-1-yl)-6,7-difluoro-[1,2,4]triazolo[4,3-a]quinazoline] the same measures were 18.7 nM and 0.815 nM.
On to `OC1(C#Cc2cccc3c2CCCN3c2nc3nncn3c3ccc(F)c(F)c23)CCCCC1` [Example 209, 1-[2-[1-(6,7-Difluoro-[1,2,4]triazolo[4,3-a]quinazolin-5-yl)-3,4-dihydro-2H-quinolin-5-yl]ethynyl]cyclohexanol], for which, on human DGKα, the half-maximal inhibitory concentration (IC50) was 2.19 nM. In test [1] (setting [3]), the concentration for a half-maximal effect (EC50) was found to be 1.17 nM.
On to `Cc1nnc2nc(N3CCOCc4c(C#CC(C)(C)C(F)(F)F)cccc43)c3cc(F)ccc3n12` [Example 210], for which, on human DGKα, the 50% inhibitory concentration (IC50) came to 5.88 nM. Besides, in test [1] (setting [2]), the EC50 was determined as 0.657 nM.
For `Cc1nnc2nc(N3CCOCc4c(C#Cc5cn[nH]c5)cccc43)c3c(F)cccc3n12` [Example 211, 6-((1H-pyrazol-4-yl)ethynyl)-1-(6-fluoro-1-methyl-[1,2,4]triazolo[4,3-a]quinazolin-5-yl)-1,2,3,5-tetrahydrobenzo[e][1,4]oxazepine] the same measures were 6.35 nM and 56.1 nM.
For `Cc1nnc2nc(N3CCCc4c(C#Cc5cn[nH]c5)cccc43)c3c(F)cccc3n12` [Example 212, 5-(5-((1H-pyrazol-4-yl)ethynyl)-3,4-dihydroquinolin-1(2H)-yl)-6-fluoro-1-methyl-[1,2,4]triazolo[4,3-a]quinazoline] the same measures were 18.6 nM and 9.7 nM.
With `Cc1nnc2nc(N3CCCc4c(C#Cc5ccc(C#N)nc5)cccc43)c3c(F)cccc3n12` [Example 213, 5-((1-(6-fluoro-1-methyl-[1,2,4]triazolo[4,3-a]quinazolin-5-yl)-1,2,3,4-tetrahydroquinolin-5-yl)ethynyl)picolinonitrile], the IC50 at human DGKα amounted to 10 nM. In test [1] (setting [2]), the EC50 came to 1.28 nM.
For `Cc1nnc2nc(N3CCOCc4c(C#Cc5ccnn5C)cccc43)c3c(F)cccc3n12` [Example 214, 1-(6-fluoro-1-methyl-[1,2,4]triazolo[4,3-a]quinazolin-5-yl)-6-((1-methyl-1H-pyrazol-5-yl)ethynyl)-1,2,3,5-tetrahydrobenzo[e][1,4]oxazepine] the same measures were 9.08 nM and 3.29 nM.
The matching figures for `Cc1nnc2nc(N3CCCc4c(C#Cc5ccn[nH]5)cccc43)c3c(F)cccc3n12` [Example 215, 5-(5-((1H-pyrazol-5-yl)ethynyl)-3,4-dihydroquinolin-1(2H)-yl)-6-fluoro-1-methyl-[1,2,4]triazolo[4,3-a]quinazoline]: 25.2 nM and 9.95 nM.
Take `Cc1cccc2c1c(N1CCOCc3c(C#CC4(C)CC4)cccc31)nc1nnc(C)n12` [Example 216, 1-(1,6-dimethyl-[1,2,4]triazolo[4,3-a]quinazolin-5-yl)-6-((1-methylcyclopropyl)ethynyl)-1,2,3,5-tetrahydrobenzo[e][1,4]oxazepine]: on human DGKα, the IC50 worked out at 24.3 nM. Further, in test [1] (setting [2]), the EC50 came to 5.42 nM.
Turning to `Cc1cccc2c1c(N1CCOCc3c(C#CC(C)(C)C#N)cccc31)nc1nnc(C)n12` [Example 217, 4-(1-(1,6-dimethyl-[1,2,4]triazolo[4,3-a]quinazolin-5-yl)-1,2,3,5-tetrahydrobenzo[e][1,4]oxazepin-6-yl)-2,2-dimethylbut-3-ynenitrile], the IC50 on human DGKα is 31.7 nM. Besides, the EC50 in test [1] (setting [2]) was 16 nM.
For `Cc1nnc2nc(N3CCOCc4c(C#Cc5cnn(C)c5)cccc43)c3c(F)cccc3n12` [Example 218, 1-(6-fluoro-1-methyl-[1,2,4]triazolo[4,3-a]quinazolin-5-yl)-6-((1-methyl-1H-pyrazol-4-yl)ethynyl)-1,2,3,5-tetrahydrobenzo[e][1,4]oxazepine] the same measures were 14.5 nM and 33.9 nM.
Consider `COc1cncc(C#Cc2cccc3c2CCCN3c2nc3nnc(C)n3c3ccc(F)cc23)c1` [Example 219], for which, on human DGKα, the IC50 amounted to 11.2 nM. Moreover, the EC50 in test [1] (setting [2]) is 1.3 nM.
For `Cc1nnc2nc(N3CCCc4c(C#Cc5cnc(C(F)(F)F)nc5)cccc43)c3c(F)cccc3n12` [Example 220, 6-fluoro-1-methyl-5-(5-((2-(trifluoromethyl)pyrimidin-5-yl)ethynyl)-3,4-dihydroquinolin-1(2H)-yl)-[1,2,4]triazolo[4,3-a]quinazoline] the same measures were 21.8 nM and 0.346 nM.
For `CCCCCc1cc(C2(C#Cc3cccc4c3CCCN4c3nc4nnc(C)n4c4cccc(F)c34)CC2)no1` [Example 221, 3-(1-((1-(6-fluoro-1-methyl-[1,2,4]triazolo[4,3-a]quinazolin-5-yl)-1,2,3,4-tetrahydroquinolin-5-yl)ethynyl)cyclopropyl)-5-pentylisoxazole] the same measures were 122 nM and 0.647 nM.
The matching figures for `COc1ccc(C#Cc2cccc3c2COCCN3c2nc3nnc(C)n3c3cccc(F)c23)cn1` [Example 222, 1-(6-fluoro-1-methyl-[1,2,4]triazolo[4,3-a]quinazolin-5-yl)-6-((6-methoxypyridin-3-yl)ethynyl)-1,2,3,5-tetrahydrobenzo[e][1,4]oxazepine]: 6.29 nM and 0.718 nM.
Consider `Cc1nnc2nc(N3CCCc4c(C#Cc5ccnn5C)cccc43)c3cc(F)ccc3n12` [Example 223, 7-fluoro-1-methyl-5-[5-[2-(2-methylpyrazol-3-yl)ethynyl]-3,4-dihydro-2H-quinolin-1-yl]-[1,2,4]triazolo[4,3-a]quinazoline], for which the IC50 on human DGKα was 40.7 nM. The EC50 in test [1] (setting [2]) was 9.21 nM.
The matching figures for `Cc1nnc2nc(N3CCCc4c(C#Cc5ccn[nH]5)cccc43)c3cc(F)ccc3n12` [Example 224, 7-fluoro-1-methyl-5-[5-[2-(1H-pyrazol-5-yl)ethynyl]-3,4-dihydro-2H-quinolin-1-yl]-[1,2,4]triazolo[4,3-a]quinazoline]: 15.1 nM and 8.38 nM.
The matching figures for `Cc1nnc2nc(N3CCCc4c(C#Cc5cn[nH]c5)cccc43)c3cc(F)ccc3n12` [Example 225, 7-fluoro-1-methyl-5-[5-[2-(1H-pyrazol-4-yl)ethynyl]-3,4-dihydro-2H-quinolin-1-yl]-[1,2,4]triazolo[4,3-a]quinazoline]: 7.46 nM and 8.97 nM.
For `Cc1nnc2nc(N3CCCc4c(C#Cc5cnn(C)c5)cccc43)c3c(F)c(F)ccc3n12` [Example 226, 6,7-difluoro-1-methyl-5-[5-[2-(1-methylpyrazol-4-yl)ethynyl]-3,4-dihydro-2H-quinolin-1-yl]-[1,2,4]triazolo[4,3-a]quinazoline] the same measures were 3.42 nM and 3.92 nM.
Consider `Cc1nnc2nc(N(CC(F)F)c3cc(F)cc(C#Cc4cnn(C)c4)c3)c3c(F)c(F)ccc3n12` [Example 227, N-(2,2-difluoroethyl)-6,7-difluoro-N-[3-fluoro-5-[2-(1-methylpyrazol-4-yl)ethynyl]phenyl]-1-methyl-[1,2,4]triazolo[4,3-a]quinazolin-5-amine], for which the IC50 on human DGKα came out at 29.3 nM. Also, in test [1] (setting [2]), the EC50 was found to be 9.73 nM.
The matching figures for `COc1ccc(C#Cc2cccc3c2CCCN3c2nc3nnc(C)n3c3ccc(F)cc23)cn1` [Example 228, 7-fluoro-5-[5-[2-(6-methoxy-3-pyridyl)ethynyl]-3,4-dihydro-2H-quinolin-1-yl]-1-methyl-[1,2,4]triazolo[4,3-a]quinazoline]: 17.8 nM and 0.319 nM.
For `Cc1nnc2nc(N3CCCc4c(C#Cc5ccnc(C#N)c5)cccc43)c3cc(F)ccc3n12` [Example 229, 4-[2-[1-(7-fluoro-1-methyl-[1,2,4]triazolo[4,3-a]quinazolin-5-yl)-3,4-dihydro-2H-quinolin-5-yl]ethynyl]pyridine-2-carbonitrile] the same measures were 16.7 nM and 1.04 nM.
Consider `Cc1nc(C#Cc2cccc3c2CCCN3c2nc3nnc(C)n3c3ccc(F)cc23)cs1` [Example 231, 4-[2-[1-(7-fluoro-1-methyl-[1,2,4]triazolo[4,3-a]quinazolin-5-yl)-3,4-dihydro-2H-quinolin-5-yl]ethynyl]-2-methyl-thiazole], for which the concentration for half-maximal inhibition (IC50) on human DGKα was 7.64 nM. Further, in test [1] (setting [2]), the half-maximal effective concentration (EC50) came to 4.06 nM.
The matching figures for `Cc1nnc2nc(N3CCCc4c(C#Cc5cncn5C)cccc43)c3cc(F)ccc3n12` [Example 232, 7-fluoro-1-methyl-5-[5-[2-(3-methylimidazol-4-yl)ethynyl]-3,4-dihydro-2H-quinolin-1-yl]-[1,2,4]triazolo[4,3-a]quinazoline]: 12.4 nM and 9.24 nM.

For the origin of these results see patent US11976072B2, “Diacylglycerol kinase modulating compounds” (priority 2021, dated 2024).
